Measurements from article PMC5310657, “Effects of an unusual poison identify a lifespan role for Topoisomerase 2 in Saccharomyces cerevisiae” (Aging (Albany NY), 2017).

Key:
Type in all cases: biochemical
[1] = target: T1, yeast topoisomerase 2 (yTop2) (Saccharomyces cerevisiae, UniProt P06786); test: in vitro pUC18 plasmid linearization (DNA cleavage) assay; supported by TOP2 overexpression hypersensitivity and resistant top2 mutants
T1 construct: gene TOP2
T1 sequence (P06786 1-1428): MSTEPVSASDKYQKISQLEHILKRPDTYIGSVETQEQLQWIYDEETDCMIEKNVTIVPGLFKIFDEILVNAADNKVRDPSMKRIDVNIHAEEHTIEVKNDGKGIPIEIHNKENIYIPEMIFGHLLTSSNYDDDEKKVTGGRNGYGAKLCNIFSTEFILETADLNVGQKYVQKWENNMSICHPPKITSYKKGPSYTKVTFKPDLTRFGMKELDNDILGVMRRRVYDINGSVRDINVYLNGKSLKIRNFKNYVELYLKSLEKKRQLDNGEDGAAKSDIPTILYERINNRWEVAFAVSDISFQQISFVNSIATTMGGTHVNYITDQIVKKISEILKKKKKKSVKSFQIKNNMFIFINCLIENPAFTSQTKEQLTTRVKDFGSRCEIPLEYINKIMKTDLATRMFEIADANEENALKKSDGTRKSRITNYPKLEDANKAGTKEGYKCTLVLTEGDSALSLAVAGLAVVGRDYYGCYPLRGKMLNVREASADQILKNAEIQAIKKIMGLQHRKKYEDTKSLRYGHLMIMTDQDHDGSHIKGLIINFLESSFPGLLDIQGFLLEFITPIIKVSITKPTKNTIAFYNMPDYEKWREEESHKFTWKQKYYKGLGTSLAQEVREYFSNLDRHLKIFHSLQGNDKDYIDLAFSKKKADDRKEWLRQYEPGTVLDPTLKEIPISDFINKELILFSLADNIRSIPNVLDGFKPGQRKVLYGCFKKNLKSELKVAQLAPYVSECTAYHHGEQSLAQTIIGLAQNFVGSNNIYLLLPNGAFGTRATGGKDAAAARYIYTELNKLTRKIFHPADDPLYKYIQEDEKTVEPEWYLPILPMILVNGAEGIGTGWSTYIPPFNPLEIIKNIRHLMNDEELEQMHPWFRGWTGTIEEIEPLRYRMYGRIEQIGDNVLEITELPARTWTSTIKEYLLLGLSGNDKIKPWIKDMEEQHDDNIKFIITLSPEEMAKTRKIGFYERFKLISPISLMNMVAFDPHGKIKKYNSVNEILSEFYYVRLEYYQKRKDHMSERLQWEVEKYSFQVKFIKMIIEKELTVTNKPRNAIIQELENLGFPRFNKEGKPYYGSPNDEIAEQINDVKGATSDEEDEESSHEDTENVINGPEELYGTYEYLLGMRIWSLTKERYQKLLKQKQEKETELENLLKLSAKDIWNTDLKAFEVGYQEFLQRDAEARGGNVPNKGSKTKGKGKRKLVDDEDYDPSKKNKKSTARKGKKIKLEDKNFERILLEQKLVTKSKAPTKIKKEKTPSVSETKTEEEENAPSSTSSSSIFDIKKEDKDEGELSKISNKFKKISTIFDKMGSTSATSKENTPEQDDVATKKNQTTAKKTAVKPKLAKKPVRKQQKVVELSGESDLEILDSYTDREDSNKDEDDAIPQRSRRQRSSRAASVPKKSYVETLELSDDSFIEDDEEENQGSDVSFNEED

human Top2α = target: T2, human Top2α (Homo sapiens, UniProt P11388); test: kinetoplast DNA decatenation assay with purified human TOP2-α
T2 construct: gene TOP2A
T2 sequence (P11388 whole entry): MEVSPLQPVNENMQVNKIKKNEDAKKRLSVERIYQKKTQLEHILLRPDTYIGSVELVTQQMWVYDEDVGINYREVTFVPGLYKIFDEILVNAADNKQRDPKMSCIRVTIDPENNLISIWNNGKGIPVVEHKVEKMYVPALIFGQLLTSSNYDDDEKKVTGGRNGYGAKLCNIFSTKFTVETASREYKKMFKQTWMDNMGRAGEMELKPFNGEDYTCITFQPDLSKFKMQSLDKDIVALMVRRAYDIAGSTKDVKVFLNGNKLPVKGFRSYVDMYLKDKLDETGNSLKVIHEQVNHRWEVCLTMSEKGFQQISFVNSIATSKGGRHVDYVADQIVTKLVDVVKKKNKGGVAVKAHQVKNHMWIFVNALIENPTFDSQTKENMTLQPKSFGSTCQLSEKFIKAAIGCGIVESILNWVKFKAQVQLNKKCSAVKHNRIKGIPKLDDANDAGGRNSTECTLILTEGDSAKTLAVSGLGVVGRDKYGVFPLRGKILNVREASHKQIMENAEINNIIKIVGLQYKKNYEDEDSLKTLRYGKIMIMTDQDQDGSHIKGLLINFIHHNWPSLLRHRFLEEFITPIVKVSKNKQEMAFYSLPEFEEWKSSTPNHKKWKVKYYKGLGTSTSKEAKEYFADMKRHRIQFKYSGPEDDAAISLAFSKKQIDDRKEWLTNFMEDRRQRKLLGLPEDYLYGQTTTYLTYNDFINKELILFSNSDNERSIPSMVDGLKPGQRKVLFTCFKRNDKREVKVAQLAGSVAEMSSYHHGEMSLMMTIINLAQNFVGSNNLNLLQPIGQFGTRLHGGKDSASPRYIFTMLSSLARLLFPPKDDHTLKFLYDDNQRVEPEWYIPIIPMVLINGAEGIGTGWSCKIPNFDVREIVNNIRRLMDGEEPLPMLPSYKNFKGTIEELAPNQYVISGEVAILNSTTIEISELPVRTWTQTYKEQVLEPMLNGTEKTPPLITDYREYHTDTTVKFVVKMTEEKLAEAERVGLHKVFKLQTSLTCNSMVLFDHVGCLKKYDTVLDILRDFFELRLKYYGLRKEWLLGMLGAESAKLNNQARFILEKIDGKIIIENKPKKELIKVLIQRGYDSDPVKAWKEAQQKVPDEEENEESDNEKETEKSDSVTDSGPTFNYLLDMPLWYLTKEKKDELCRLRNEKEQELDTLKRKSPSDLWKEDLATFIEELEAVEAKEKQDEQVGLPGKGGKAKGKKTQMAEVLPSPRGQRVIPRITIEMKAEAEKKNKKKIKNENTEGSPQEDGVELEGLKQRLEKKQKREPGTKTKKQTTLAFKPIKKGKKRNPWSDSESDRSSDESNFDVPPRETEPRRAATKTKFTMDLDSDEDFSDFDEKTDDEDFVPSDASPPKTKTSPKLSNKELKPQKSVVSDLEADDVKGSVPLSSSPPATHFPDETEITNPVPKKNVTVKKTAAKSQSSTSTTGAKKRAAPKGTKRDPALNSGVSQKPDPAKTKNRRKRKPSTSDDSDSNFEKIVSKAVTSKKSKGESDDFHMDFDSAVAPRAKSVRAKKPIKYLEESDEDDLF

[2] = target: T1, yeast topoisomerase 2 (yTop2); test: in vitro pUC18 plasmid linearization (DNA cleavage) assay, reference Top2 poison

IC50 (human Top2α) [µM] | Compound | in vitro pUC18 plasmid linearization (DNA cleavage) assay; supported by TOP2 ove [1] | in vitro pUC18 plasmid linearization (DNA cleavage) assay, reference Top2 poison [2]
3 | c1ccc2nc3c(nc2c1)[nH]c1ccccc13 [LS1, 6H-Indolo [2,3-b] quinoxaline] | LS1 promotes the in vitro formation by yTop2 of DSBs in plasmid DNA (Fig. 7A & B) | 
 | COc1cc([C@@H]2c3cc4c(cc3[C@@H](O[C@@H]3O[C@@H]5CO[C@@H](C)O[C@H]5[C@H](O)[C@H]3O)[C@H]3COC(=O)[C@H]23)OCO4)cc(OC)c1O [ETOP, etoposide] |  | formation by yTop2 of DSBs in plasmid DNA (Fig. 7A & B), albeit less efficiently than etoposide
